{
  "source": "paper PMC8962522",
  "about": "“Direct interaction of TrkA/CD44v3 is essential for NGF-promoted aggressiveness of breast cancer cells” (Journal of Experimental & Clinical Cancer Research : CR, 2022)",
  "key": {"[1]": {"test": "Body weight in xenografted SCID mice", "assay_type": "in vivo", "settings": "10 mice per group; injections near the tumor", "protocol": "MDA-MB-231 cells (2 × 10^6) were subcutaneously injected into the flanks of six-week-old female SCID mice. One month after injection, the mice were randomized into 2 groups and injected near the tumor with CD44v3 mimetic peptide 4 (P4) or not (control) five times in a 3-day interval. Tumor volume was determined throughout the experiment by measuring the length (l) and width (w) and was calculated as π/6 × l × w × […]. Animals were sacrificed using isoflurane anesthesia when the tumors reached a similar size, and the organs were immediately removed and stored in liquid nitrogen.\nFig. 6 CD44v3 mimetic peptide 4 blocks MDA-MB-231 tumor growth and metastasis. Schematic representation of the experimental setup for MDA-MB-231 tumor growth assessment in SCID mice (A). Body weight (B) and tumor volume (C) were measured following CD44v3 mimetic peptide administration (10 mice per group). Schematic representation of the experimental setup for MDA-MB-231 metastasis assessment in SCID mice (D). Percentage of metastasis-positive lungs, brains and livers (E) after scramble peptide or CD44v3 mimetic peptide 4 treatment (3 mice/group) or (F) after TrkA-H112 mutant treatment (6 mice) compared with HA-TrkA cells (5 mice). ** p < 0.01; ns, nonsignificant. […]"}, "RhoA in MDA-MB-231 cells": {"system": "RhoA in MDA-MB-231 cells", "test": "AB-FRET RhoA activation, MDA-MB-231 with RhoA biosensor", "assay_type": "cell-based", "protocol": "MDA-MB-231 native or KD cells were seeded (5000 cells/well; ovn, 37 °C) in a chambered coverglass system (Lab-Tek®) coated with a type I collagen matrix (100 μg/mL; Corning). These cells were transfected using the pBabe-puro-RhoA plasmid (0.15 μg; Addgene plasmid #12602) diluted in a buffer solution (JetOPTIMUS® buffer) and a transfection agent (TA; 10 min). The mixture was incorporated into the culture medium (4 h; 37 °C). Two to three hours before image acquisition, the cells expressing the RhoA biosensor were starved in fresh EMEM containing 0.1% FBS and no phenol red. […]\nTo further elucidate the mechanism of action of CD44v3 mimetic peptide 4, we studied its effect on the TrkA signaling pathway. […] Additionally, to confirm that this effect was independent of TrkA phosphorylation, we measured RhoA activation in MDA-MB-231 cells expressing dead TrkA kinase, which cannot be phosphorylated (Fig. 5D). […]\nFig. 5 CD44v3 is implicated in the phospho-TrkA-independent activation of RhoA GTPase. Phosphorylation of TrkA was measured in the presence of a scramble peptide or CD44v3 mimetic peptide 4 (P4) in the presence or absence of NGF (A). […] Phosphorylation of TrkA and downstream Akt in wild-type MDA-MB-231 and MDA-MB-231 cells expressing kinase-dead TrkA, as determined by western blotting (D). […]"}, "SUM-159-PT cells": {"system": "SUM-159-PT cells", "test": "Scratch/wound migration assay, SUM-159-PT", "assay_type": "cell-based", "settings": "24 h after treatment; Supplementary Fig. 9 C & D; effects as in MDA-MB-231 (inhibition of NGF-induced migration)"}},
  "note": "Entries after “also recorded” stand apart in the source; their conditions may differ.",
  "data": [
    {"sequence": "IDDDEDFISST [Peptide 4, mimetic peptide 4 (…) corresponding to the C-terminal region of CD44v3]", "values": [
      {"measurement": "body weight (in words)", "setting": "[1]", "value": "did not affect the overall body weight of the mice"},
      {"measurement": "Mean donor peak (AB-FRET, RhoA activation), with NGF", "setting": "RhoA in MDA-MB-231 cells", "value": 1.23},
      {"measurement": "NGF-induced FRET signal (RhoA activity), in words", "setting": "RhoA in MDA-MB-231 cells; statement: NGF increased the signal with scramble peptide, not with peptide 4, listed as CD44v3 mimetic peptide 4", "value": "NGF increased the FRET signal in the presence of the scramble peptide but not with CD44v3 mimetic peptide 4; also recorded: inhibits TrkA phosphorylation-independent RhoA activation induced by NGF"},
      {"measurement": "effect on migration of SUM-159-PT cells", "setting": "SUM-159-PT cells", "value": "We also confirmed the effects of CD44v3 mimetic peptide 4 on migration in SUM-159-PT cells"}
    ]}
  ]
}
